Results taken from a melting point compilation (Tetko et al.; mined from patent text by program, amines drawn as free bases though some values may be those of a salt).

In the case of `COc1ccc(N(CC(=O)NCC(=O)O)C(=O)c2ccc(Cl)cc2)cc1`, the melting point is reported as 138 to 140 °C. `Cn1c(CNCC(C)(C)C)cc2cc(NC(=O)c3ccc(C#CC4(O)CCC4)cc3)ccc21` showed a melting point of 160 to 161 °C. `CC1(C)CCC(C)(C)c2cc(-c3cc(-c4ccccc4O)ccc3C(=O)O)ccc21` showed a melting point of 264 to 267 °C. `O=C(O)C1(c2ccsc2)CC1` showed a melting point of 132 to 133 °C. `C/C(=C\C=C\c1ccccc1)C(=O)NCCCCCC(=O)NO` gave a melting point of 158 to 160 °C. Work on `CCCCc1nn(-c2cc(NC(C)=O)ccc2Cl)c(=O)n1Cc1ccc(-c2cc(CCC)ccc2S(=O)(=O)NC(=O)c2ccccc2Cl)cc1F` yielded a melting point of 144 to 146 °C. Molecule `CCN(CC)C(=O)C(C)Cc1nc(-c2ccccc2)cc2ccccc12` (stereo not drawn) has a melting point of 57 °C. Work on `CCCCOc1ccc(-c2cnc(Cl)nc2)cn1` yielded a melting point of 117 °C. Molecule `C(=C\c1cc(/C=C/c2ccc3[nH]ccc3c2)n[nH]1)/c1cccc(OCc2ccccn2)c1` has a melting point of 183 to 186 °C. Molecule `Cc1nc(N2CCN(C)CC2)nc(N)c1-c1cc(Cl)cc(Cl)c1Cl` has a melting point of 156 to 159 °C. In the case of `CCOc1ccc(OC)cc1C(N)=O`, the melting point is reported as 128 to 130 °C. For `CCOC(=O)c1cc(-c2ccc(Cl)c(Cl)c2)nn1C`, the melting point was 122 to 124 °C. In the case of `COc1cc(OC)c2c(=O)[nH]c(-c3ccc(OCCN4CCCC4)c(-c4ccc(S(C)=O)cc4)n3)nc2c1` (stereo not drawn), the melting point is reported as 103 to 105 °C. With `O=C(CN1CCC(n2c(=O)[nH]c3ccccc32)CC1)c1ccc(OCc2ccccc2)c(OCc2ccccc2)c1` the melting point was 118 to 120 °C. For `COc1cc(CCNc2ncnc3scnc23)ccc1O`, the melting point was 151 to 154 °C. For `CS(=O)(=O)c1ccc(Oc2ccc(Cl)c(Cl)c2)nc1`, the melting point was 120 to 121 °C. For `COC(=O)c1cc2c(cc1C#Cc1ccccc1)NC(=O)CC(c1cccc(C#N)c1)=N2`, the melting point was > 250 °C. `O=C1CCCN1N=c1sc2ccccc2s1` gave a melting point of 122 to 124 °C. `O=C(CN1CCOCC1)Oc1ccc2c(=O)c3c(oc2c1)C(=Cc1ccccc1)CC3` showed a melting point of 204 to 206 °C. `COc1ccccc1N1CCN(CCOc2ccc(-c3cn4cccnc4n3)cc2)CC1` gave a melting point of 150 to 152 °C. `CCc1ccc(OC(=O)c2ccccc2)c(C(=O)c2ccc(Cl)cc2)c1` showed a melting point of 79 to 81 °C. Molecule `Cc1ccc(C2COc3cc(O)ccc3C2c2ccc(OCCN3CCCCC3)cc2)cc1` (stereo not drawn) has a melting point of 146 to 148 °C. With `CCCc1nc2cc(C(=O)c3ccccc3)ccc2n1Cc1ccc(Cl)c(Cl)c1` the melting point was 168 to 169 °C. `c1ccc(N2CCN(CCC3CCC(Nc4cccnc4)CC3)CC2)cc1` (stereo not drawn) gave a melting point of 159 to 160 °C. For `COc1cc2[nH]c(=O)c(-c3csc(-c4cccnc4)n3)c(N)c2cc1OC`, the melting point was > 250 °C. With `Cc1ccc2c(c1Cl)S(=O)(=O)N=CN2C1CC1` the melting point was 218 to 223 °C. With `O=C1CC(c2ccc(-c3ccc(Br)cc3)cc2)Cc2ccccc21` (stereo not drawn) the melting point was 156 to 158 °C. Work on `CCN(CC)C(=O)C1CN2CCC1C(NCc1ccccc1OC)C2C(c1ccccc1)c1ccccc1` (stereo not drawn) yielded a melting point of 121 to 123 °C. For `CCCC(=O)Nc1c(C)c2c(c(C(C)c3ccc(C(C)C)cc3)c1C)OCC2` (stereo not drawn), the melting point was 152 to 153 °C. In the case of `CCOC(=O)C(=CNC1CC1)C(=O)c1cc(F)c(Cl)c(C#N)c1Cl`, the melting point is reported as 65 to 67 °C. `Cc1nc(-n2ccc(OCc3ccccc3)cc2=O)[nH]c1C(=O)NCc1cccnc1` showed a melting point of 203 to 204 °C. `C[Si](C)(C)O[C@@]1(C(F)(F)F)OCN(C(=O)OCc2ccccc2)[C@H]1Cc1ccccc1` gave a melting point of 98 to 101 °C. For `CON(C(=Cc1ccccc1)C(N)=O)c1ccccc1`, the melting point was 69 °C. `O=C(O)CCCCc1cn(-c2cccnc2)c2ccccc12` gave a melting point of 122 to 124 °C. `COc1ccc(CCN(C)CCCOc2ccc(NC(=O)c3cccc4c(=O)c5ccccc5[nH]c34)cc2)cc1` showed a melting point of 160 °C. Work on `COc1ccc(C=C2c3ccccc3C(=O)c3ccccc32)cc1OCC(=O)N1CCC(CO[N+](=O)[O-])CC1` yielded a melting point of 63 to 65 °C. Molecule `Oc1ccc(Oc2ccc(OC(F)(F)F)cc2)cc1` has a melting point of 44 to 46 °C. Molecule `CC(C)(C)OC(=O)C(O)CC1CCC(=O)N1` (stereo not drawn) has a melting point of 110 to 112 °C. `Cc1ccc2c(=O)c(CS(C)(=O)=O)cn(C)c2c1` gave a melting point of 193 to 195 °C. With `CN(C(=O)CCC#Cc1ccccn1)c1ccccc1` the melting point was 68 to 71 °C. For `COC=C(C(=O)OC)c1csc2ccc(C=O)cc12`, the melting point was 134 to 135 °C. `CCOc1cc2c(cc1OCC)C1CC(=O)C(CC)CN1CC2` (stereo not drawn) showed a melting point of 115 to 118 °C. In the case of `CC(C)COc1c(-c2ccc(S(C)(=O)=O)cc2)cnn(-c2cccc(Cl)c2)c1=O`, the melting point is reported as 166 to 169 °C. Work on `CS(=O)(=O)c1ccc(-c2cnn(CC(F)(F)F)c(=O)c2Sc2ccc(F)cc2)cc1` yielded a melting point of 182 to 185 °C. `O=C(Nc1ccc(SCCCCCCCCCCCCC(Cl)(Cl)C(=O)O)cc1)c1ccc(Cl)cc1` showed a melting point of 167 to 168 °C. `CN(Cc1ccc([N+](=O)[O-])cc1)C1CCN(c2ccc([N+](=O)[O-])cc2)CC1` showed a melting point of 119 to 120 °C. Work on `CN(C)CCn1c(=O)c2ccc([N+](=O)[O-])cc2c2cnc3cc4c(cc3c21)OCO4` yielded a melting point of 111 to 112 °C. For `O=C(CC(c1ccc(OC(F)F)c(OCC2CC2)c1)N1C(=O)c2ccccc2C1=O)NO` (stereo not drawn), the melting point was 129 to 131 °C. Molecule `Nc1ccc(Cl)cc1-c1ncn[nH]1` has a melting point of 170 to 175 °C. `Cc1cc(NC2=NCCN2)n(-c2ccccc2C)n1` gave a melting point of 168 to 169 °C. Molecule `COC1(c2ccc(C(C)C)cc2OCc2ccccc2)C(=O)c2ccccc2C1=O` has a melting point of 140 to 144 °C. With `COc1ccc(-c2ccn(-c3ccc4c5c(n(C)c4c3)CN(C(=O)OC(C)(C)C)CC5)c(=O)c2)cc1` the melting point was 306 to 308 °C. Work on `CCOC(=O)c1ccc(C#Cc2ccc3c(c2)C(=O)CC(C)(C)S3)cc1` yielded a melting point of 102 to 104 °C. Molecule `Nc1ncnc2[nH]cc(-c3ccc(Oc4ccccc4)cc3)c12` has a melting point of 272 °C. Work on `CC(=O)OC1CSC(Oc2ccc(-c3cncnc3)nc2Cl)C(OC(C)=O)C1OC(C)=O` (stereo not drawn) yielded a melting point of 168 °C. In the case of `Cc1ccc(S(N)(=O)=O)cc1NC(=O)c1cnn2c(C(F)F)cc(-c3ccc(C(F)(F)F)cc3)nc12`, the melting point is reported as 293 °C. Work on `Cc1cc(C)cc(NC(=O)Nc2ccc(-c3c(C(N)=O)[nH]c4ccccc34)cc2)c1` yielded a melting point of 168 to 170 °C. With `CCN(CC)c1ccc(-c2cc(-c3ccc(C(=O)O)cc3)ccc2O)cc1C(F)(F)F` the melting point was 195 °C. Molecule `Cc1nc(-c2ncn3c2c(C)nc2ccccc23)no1` has a melting point of 192 to 193 °C. For `CS(=O)(=O)Nc1cccc(Nc2nc(NCc3cccc(O)c3)c3nc[nH]c3n2)c1`, the melting point was 221 to 225 °C. For `COC(=O)c1nc(NCC(O)CO)cnc1[N+](=O)[O-]` (stereo not drawn), the melting point was 107 to 109 °C. Molecule `CCN1c2nc(Cl)ccc2NC(=O)c2cc(CCc3ccncc3)cnc21` has a melting point of 194 to 196 °C. With `COc1ccccc1OC(=O)CCl` the melting point was 60 to 61.5 °C. `Cc1ccc(-c2cn(C)cc(-c3ccccc3)c2=O)cc1C` showed a melting point of 108 to 111 °C. Molecule `CSc1ccc(Nc2cscc2C#N)c([N+](=O)[O-])c1` has a melting point of 167 to 169 °C. For `Cc1ccc(-n2nc3c(cc2=O)CCc2sc(CO)cc2-3)cc1`, the melting point was 166 to 169 °C. In the case of `CCC(C(=O)c1ccc(O)cc1)c1ccccc1` (stereo not drawn), the melting point is reported as 127 to 129 °C. For `CCOCCOC(=O)C(=O)Nc1nc(-c2cc3ccccc3oc2=O)cs1`, the melting point was 156 to 157 °C.
